Key:
[1] = test system: L929 mammalian fibroblasts; assay: MEM toxicity test (USP standard elution cytotoxicity, trypan blue); type: cell-based; parameters: key to toxicity, MEM level / MEM Result: 0: No cell lysis - Discrete intracytoplasmic granules; 1: Not more than 20% of cells round and loosely attached - occasional lysed cells present; 2: Not more than 50% of cells round - extensive cell lysis and empty areas between cells; 3: Not more than 70% of the cell layers contain rounded cells and/or lysed; 4: Nearly complete destruction of the cell layer
Excerpt: In testing the toxicity of compounds of the compositions disclosed in solution, an MEM test procedure is used. The MEM (Minimum Essential Medium) test procedure is employed to evaluate cytoxicity using standard USP (The United States Pharmacopeial Convention) elution assays. A description of the test procedure is provided herein.
The assay provides a means of evaluating extracts of polymeric materials under direct contact conditions. This method is appropriate for high-density materials and for dose-response evaluations.
Media Preparation: 1X MEM media is prepared by mixing 100 mL Eagle's MEM (with Earl's Salts and Sodium Bicarbonate, without L-glutamine), with 10mL serum, 1 mL-glutamine solution, and 0.5 mL antibiotic solution (L-glutamine and antibiotic solutions are purchased at correct concentrations and stored frozen at -20 °C±2). Eagle's
Before use, a 4 ml aliquot of 10X trypsin is diluted 1:9 with 36 ml of Dulbecco's Phosphate Buffered Saline (PBS) to yield a 0.25% solution. Dulbecco's Saline is available from Mediatech Cellgro. Sterile 35 mm diameter petri dishes or 6 well tissue culture plates are used. Sterile serological pipets are employed in the procedure. Sterile absorbent material (e.g. Kay-Drys or similar material) is used. L929 mammalian fibroblasts (ATCC cell line CCL1, NCTC clone 929) are employed.
Overview of Method: Cell cultures are grown to a near confluent monolayer in 6 well plates (the wells are 35mm). After the test, material is extracted under various conditions (i.e. extracting medium, time, temperature) so as to allow evaluation of extract toxicity in accordance with USP procedures. These procedures define methods to be used to extract materials for in vivo or in vitro toxicity evaluations in accordance with United States Pharmacopoeia (USP). The Sodium Chloride Injection extract is diluted with serum-supplemented cell culture medium at 25% extract concentration. Each culture is examined microscopically after 48 hours using trypan blue for the presence of morphological changes, reduction in cell density or cell lysis induced by the test material.
Cell Layer Preparation: The next step is to tryptanize cells. Next, one determines cell density using standard methods to define standard cell biology methods to be used to determine and adjust the concentration of a cell suspension, i.e. cell density. Then, an adjustment is made to yield a standard cell suspension with a density of 250,000 to 350,000 cell/mL in serum supplemented MEM for L929 cells. Seed cells are placed into 6 well plates by pipetting 2 ml of the standard cell suspension into each well. […]
Exposure to Test Extracts: Exposure to test extracts is determined examining a representative prepared cell culture plate using the microscope to observe the cell monolayer for correct confluency. […]

[2] = Solubility (statement); type: physicochemical
[3] = Stability of magnesium perphthalate (statement); type: physicochemical

With O.O.O.O.O.O.O=C([O-])c1ccccc1C(=O)O[O-].[Mg+2] [magnesium perphthalate, magnesium monoperoxyphthalate hexahydrate] the “toxicity, MEM Test Result level” value ([1]; concentrations below 0.5%, generally) was 1 (Not more than 20% of cells round and loosely attached - occasional lysed cells present), the “toxicity, MEM level” value ([1]; concentrations of 0.5% and above, with and without saline) was 4 and the toxicity ([1]; concentrations of about 0.25% and below in a chloride or other halide-containing solution) was “not toxic”. The “MEM Result” value ([1]; some test results at below 0.5% magnesium perphthalate) was 0, the solubility [2] was “freely soluble” and the stability ([3]; in aqueous solution) was “not stable”. For the same compound, the stability ([3]; in solid form) was “stable”.
